Like-named read-outs stand apart in the source and are kept apart here. Ends that are not written are not given here.
Assays:
[1] = test system: αSyn; assay: Thio-T fluorescence assay of αSyn fibril formation with added protein; assay type: biochemical, Human; settings: αSyn 69 μM, 50 mM Tris-HCl pH 7.4, 150 mM NaCl, 37 °C, agitation
Method: The formation of αSyn fibrils were detected in fluorescence assays using Thio-T. Samples (1 mg/ml; 69 μM) of either WT or mutant αSyn were incubated in Thio-T assay buffer (50 mM Tris-HCl, pH 7.4, containing 150 mM NaCl and 20 μM Thio-T) with or without additional FABP3 and/or αSyn-derived oligopeptides. One hundred 50 μl aliquots were incubated in 96-well plates (8 × 12-well plate; Greiner) at 37 °C using an ARVOX4 (PerkinElmer) fluorescent plate reader with continuous agitation. The fluorescence signal of the samples (Ex: 440 nm, Em: 486 nm) were measured at 15 min intervals. In experiments where the effects of delayed FABP3 addition were probed (Fig. 1C), an equimolar concentration of FABP3 was added to the respective wells after an initial agitation regimen of 3, 8, or 24 h. Data shown are the average of data from three 150 μl samples, and error bars indicate standard errors of the mean.

[2] = molecular target: T1, FABP3 (Homo sapiens, UniProt P05413); assay: Quartz crystal microbalance (QCM) binding assay to immobilized FABP3; settings: for kon / koff: QCM, immobilized His6-FABP3, 50 mM Tris-HCl pH 7.4, room temperature, kobs = koff + kon[αSyn]
T1 construct: made in house; host or cells: E. coli BLR(DE3), pET28a-derived vector (NdeI/XhoI), synthetic gene (Invitrogen GeneArt)
Method: The binding affinities between αSyn and FABP3 were estimated directly using an Affinix QNμ quartz crystal microbalance apparatus operating at room temperature. Samples of His6-FABP3 were affixed to the gold-plated quartz sensor by nickel chelating binding groups as follows. Before binding, the gold sensor was washed with 1% SDS and piranha solution (H2SO4:H2O2 = 3:1). Next, 100 μl of 0.5 mM 3, 3’-dithiobis[N-(5-amino-5-carboxypentyl)propionamide-N’,N’-diacetic acid]dihydrochloride (C₂-NTA, Dojindo) solution was applied and incubated for 10 min at room temperature. This solution was rinsed with Milli-Q water, and 500 μl of Ni+ solution (20 mM Hepes-NaOH buffer, pH 7.5, containing 150 mM NaCl,50 mM EDTA, and 10 mM NiSO4) was added. After a 10 min incubation, the sensor was washed again with Milli-Q, then a 0.1 μM sample of His6-FABP3 in 50 mM Tris-HCl buffer, pH 7.4 was applied. The signal from the quartz sensor was then monitored over a 1 s interval with gentle stirring. To initiate the data sampling run, samples of αSyn with varying concentrations were then applied to the sensor. After each experimental run, the bound His6-FABP3 was removed by the application of 500 μl imidazole solution (0.4 M imidazole/20 mM Hepes pH 7.5/150 mM NaCl) for 30 min, followed by a Milli-Q rinse, and reattachment of Ni-ion and fresh His6-FABP3 to reset the sensor to its original state. Analysis of the raw traces to obtain quantitative affinity values were performed using the software package (AQUA 2.0) provided by the manufacturer, according to the following linear relationship between the observed rate constant kobs and the concentration of αSyn; kobs = koff + kon[αSyn]. Estimated kon and koff values were then used to determine the Kd.

[3] = molecular target: T2, FABP3 F16S (Homo sapiens, UniProt P05413, F17S); assay: QCM binding assay to immobilized FABP3 F16S mutant
T2 construct: made in house
Method: The binding affinities between αSyn and FABP3 were estimated directly using an Affinix QNμ quartz crystal microbalance apparatus operating at room temperature. Samples of His6-FABP3 were affixed to the gold-plated quartz sensor by nickel chelating binding groups as follows. Before binding, the gold sensor was washed with 1% SDS and piranha solution (H2SO4:H2O2 = 3:1). Next, 100 μl of 0.5 mM 3, 3’-dithiobis[N-(5-amino-5-carboxypentyl)propionamide-N’,N’-diacetic acid]dihydrochloride (C₂-NTA, Dojindo) solution was applied and incubated for 10 min at room temperature. This solution was rinsed with Milli-Q water, and 500 μl of Ni+ solution (20 mM Hepes-NaOH buffer, pH 7.5, containing 150 mM NaCl,[…] 10 mM NiSO4) was added. After a 10 min incubation, the sensor was washed again with Milli-Q, then a 0.1 μM sample of His6-FABP3 in 50 mM Tris-HCl buffer, pH 7.4 was applied. The signal from the quartz sensor was then monitored over a 1 s interval with gentle stirring. To initiate the data sampling run, samples of αSyn with varying concentrations were then applied to the sensor. After each experimental run, the bound His6-FABP3 was removed by the application of 500 μl imidazole solution (0.4 M imidazole/20 mM Hepes pH 7.5/150 mM NaCl) for 30 min, followed by a Milli-Q rinse, and reattachment of Ni-ion and fresh His6-FABP3 to reset the sensor to its original state. Analysis of the raw traces to obtain quantitative affinity values were performed using the software package (AQUA 2.0) provided by the manufacturer, according to the following linear relationship between the observed rate constant kobs and the concentration of αSyn; kobs = koff + kon[αSyn]. Estimated kon and koff values were then used to determine the Kd.

[4] = test system: N2a cells; assay: Cell viability by Tali Image-Based Cytometer (Calcein-AM/ethidium homodimer); parameters: species or system Mouse; settings: protein co-expressed with FABP3 in N2a cells, 30 μM 6-OHDA 24 h
Method: Cell viability measurements using a Tali Image-Based Cytometer (Thermo Fisher Scientific) were performed according to previous methods ([59]). After 24 h incubation, media was changed to 0% FBS+MEM containing 30 μM 6-hydroxydopamine and incubated for 24 h. Statistical comparisons were performed by Welch’s t test.

[5] = Dynamic light scattering of fibril-forming samples; assay type: physicochemical; settings: DLS, 25 °C
Method: Dynamic light scattering measurements were performed on an Otsuka Electronics FDLS-3000 monitor with a laser wavelength of 532 nm at an observation angle of 90°. Sample protein concentrations were adjusted to 0.3 mg/ml, and a sample volume of 2 ml was used for measurements. Samples were filtered before measurement.

T1 sequence (P05413 whole entry): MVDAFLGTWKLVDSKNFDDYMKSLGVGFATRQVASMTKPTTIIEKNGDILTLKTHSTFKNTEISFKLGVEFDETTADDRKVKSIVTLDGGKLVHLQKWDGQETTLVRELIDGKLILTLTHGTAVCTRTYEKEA
T2 sequence (P05413 whole entry F17S): as the sequence (P05413 whole entry) above, with F17S counted along it

## lysozyme
[1]
  effect of added protein on αSyn fibril formation: no significant suppressive effects in fibrillation of αSyn

## EEGYQDWEPEA [αSynP130-140Y136W]
[2]
  kon: 3.8 × 10^5 M^−1・s^−1
[2]; read-out: koff
  koff: 0.0024 s⁻¹

## CCCCC/C=C\C/C=C\C/C=C\C/C=C\CCCC(=O)O [arachidonic acid, reference compound]
[2]
  Kd: 6.8 nM
  kon: 0.8 × 10^5 M^−1・s^−1
[2]; read-out: koff
  koff: 0.0006 s⁻¹
[3]
  Kd: 2090 nM
  koff: 0.0047 s⁻¹
  kon: 0.02 × 10^5 M^−1・s^−1

## EEGFQDYEPEA [αSynP130-140Y133F]
[2]
  kon: 7.5 × 10^5 M^−1・s^−1
[2]; read-out: koff
  koff: 0.0015 s⁻¹

## EEGWQDWEPEA [αSynP130-140Y133W/Y136W]
[2]
  kon: 2.4 × 10^5 M^−1・s^−1
[2]; read-out: koff
  koff: 0.0015 s⁻¹

## α-synuclein [αSyn]
[2]; QCM (Affinix QNμ), His6-FABP3 immobilized via Ni-NTA on gold sensor, 50 mM Tris-HCl pH 7.4, room temperature, Kd determined from estimated kon and koff
  Kd: 7.2 nM
[2]
  koff: 0.0046 s⁻¹
  kon: 6.4 × 10^5 M^−1・s^−1
[3]
  binding to FABP3 F16S (in words): unable to bind
[4]
  Alive cells: 77%
  Dead cells: 0%
[4]; control 12%
  Dying cells (co-stained with Calcein-AM and EthD-1): 23%
[5]; αSyn alone, absence of FABP3, after 1200 min incubation
  average particle size: 6 μm
[5]; αSyn in the presence of FABP3, after 1200 min incubation
  average particle size: 0.63 μm

## EEGYQDFEPEA [αSynP130-140Y136F]
[2]
  kon: 4.8 × 10^5 M^−1・s^−1
[2]; read-out: koff
  koff: 0.0037 s⁻¹

## bovine serum albumin
[1]
  effect of added protein on αSyn fibril formation: no significant suppressive effects in fibrillation of αSyn

## EEGYQDYEPEA [αSynP130-140]
[2]
  Kd: 6.1 nM
  kon: 2.0 × 10^5 M^−1・s^−1
[2]; read-out: koff
  koff: 0.0012 s⁻¹

## EEGFQDWEPEA [αSynP130-140 Y133F/Y136W]
[2]
  Kd: 6.1 nM
  kon: 3.2 × 10^5 M^−1・s^−1
[2]; read-out: koff
  koff: 0.0019 s⁻¹

## EEGFQDFEPEA [αSynP130-140 Y133F/Y136F]
[2]
  kon: 5.4 × 10^5 M^−1・s^−1
[2]; read-out: koff
  koff: 0.0011 s⁻¹
